For assay [1], the target named is T1, MCR-1 (Homo sapiens, UniProt Q01726).
T1 construct: expressed in transfected cells; host or cells: HEK 293
The experiment in a line: Melanocortin receptor binding assay, competition with 125I-HP 467, HEK 293 cells expressing hMCR-1. The settings on record: inhibition of binding of 125I-HP 467, HEK 293 cells expressing MCR-1, TRG 2414 library; for IC50: read-out: MC-1 IC50. Summed up:
(§1)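 Test compounds compete on intact HEK 293 cells carrying hMCR-1 (2×10^4 per tube) or hMCR-4 (4×10^3 per tube), suspended in PBS, 10% calf serum, 1 mM CaCl2.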

The target in assay [2] is T2, MCR-4 (Homo sapiens, UniProt P32245).
T2 construct: expressed in transfected cells; host or cells: HEK 293
Nature of the assay: Melanocortin receptor binding assay, competition with 125I-HP 467, HEK 293 cells expressing hMCR-4. The conditions noted are these: inhibition of binding of 125I-HP 467, HEK 293 cells expressing MCR-4, TRG 2414 library; for IC50: read-out: MC-4 IC50. Put shortly:
as §1

T2 sequence (P32245 whole entry): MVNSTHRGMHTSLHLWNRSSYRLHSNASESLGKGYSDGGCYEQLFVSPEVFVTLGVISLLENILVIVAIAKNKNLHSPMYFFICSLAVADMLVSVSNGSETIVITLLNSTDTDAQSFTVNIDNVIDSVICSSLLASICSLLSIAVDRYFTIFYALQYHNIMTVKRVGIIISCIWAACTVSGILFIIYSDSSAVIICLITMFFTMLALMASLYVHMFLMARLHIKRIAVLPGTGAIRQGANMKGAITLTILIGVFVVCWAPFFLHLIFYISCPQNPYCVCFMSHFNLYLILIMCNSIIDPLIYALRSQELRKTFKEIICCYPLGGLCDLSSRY
T1 sequence (Q01726 whole entry): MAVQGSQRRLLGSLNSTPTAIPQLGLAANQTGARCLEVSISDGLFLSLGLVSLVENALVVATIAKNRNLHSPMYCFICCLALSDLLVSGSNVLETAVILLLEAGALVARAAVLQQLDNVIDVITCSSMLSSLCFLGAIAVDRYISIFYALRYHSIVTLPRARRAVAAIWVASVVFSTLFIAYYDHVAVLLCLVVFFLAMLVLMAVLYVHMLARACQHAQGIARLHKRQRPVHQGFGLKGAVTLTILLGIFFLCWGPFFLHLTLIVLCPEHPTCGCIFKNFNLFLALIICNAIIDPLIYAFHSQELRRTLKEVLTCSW

As to `COc1ccc(CCNCC2c3ccccc3CN(CCCCC(CN)NCC(C)c3ccc(CC(C)C)cc3)C2c2ccc(Cl)cc2Cl)cc1` (stereo not drawn) [TRG 2414-28], the IC50 turned out to be 13.9 µM in assay [1] and 7.42 µM in assay [2].
The corresponding values for `NCC(N)CCCCN1Cc2ccccc2C(CNCc2ccccc2)C1c1ccc(Cl)cc1Cl` (stereo not drawn) [TRG 2414-29] are 5.66 µM and 4.4 µM.
The matching figures for `NCC(CCCCN1Cc2ccccc2C(CNCc2ccccc2)C1c1ccc(Cl)cc1Cl)NCCc1ccccc1` (stereo not drawn) [TRG 2414-30]: 5.39 µM and 6.21 µM.
The matching figures for `NCC(CCCCN1Cc2ccccc2C(CNCc2ccccc2)C1c1ccc(Cl)cc1Cl)NCc1ccccc1` (stereo not drawn) [TRG 2414-31]: 3.9 µM and 7.03 µM.
In the case of `CC(C)Cc1ccc(C(C)CNC(CN)CCCCN2Cc3ccccc3C(CNCc3ccccc3)C2c2ccc(Cl)cc2Cl)cc1` (stereo not drawn) [TRG 2414-32], the IC50 in assay [1] is 28.3 µM; in assay [2] it was 32.1 µM.
As for `NCC(CCCCN1Cc2ccccc2C(CNC2CCCCCC2)C1c1ccc(Cl)cc1Cl)NCCc1ccccc1` (stereo not drawn) [TRG 2414-34], the values for the IC50 in assay [1] and in assay [2] were 3.55 µM and 4.42 µM, respectively.
Take `NCC(CCCCN1Cc2ccccc2C(CNC2CCCCCC2)C1c1ccc(Cl)cc1Cl)NCc1ccccc1` (stereo not drawn) [TRG 2414-35]: the IC50 in assay [1] came out at 2.17 µM; in assay [2], 5.67 µM.
The matching figures for `CC(C)Cc1ccc(C(C)CNC(CN)CCCCN2Cc3ccccc3C(CNC3CCCCCC3)C2c2ccc(Cl)cc2Cl)cc1` (stereo not drawn) [TRG 2414-36]: 8.65 µM and 9.92 µM.
The corresponding values for `NCC(CCCCN1Cc2ccccc2C(CNC2CCCCC2)C1c1ccc(Cl)cc1Cl)NCCc1ccccc1` (stereo not drawn) [TRG 2414-38] are 1.92 µM and 3.96 µM.
The matching figures for `CC(C)Cc1ccc(C(C)CNC(CN)CCCCN2Cc3ccccc3C(CNC3CCCCC3)C2c2ccc(Cl)cc2Cl)cc1` (stereo not drawn) [TRG 2414-40]: 8.64 µM and 17.5 µM.
On to `NCC(N)CCCCN1Cc2ccccc2C(CNCc2ccccc2C(F)(F)F)C1c1cc(C(F)(F)F)cc(C(F)(F)F)c1` (stereo not drawn) [TRG 2414-41], for which the IC50 in assay [1] worked out at 34.2 µM; in assay [2], 15.6 µM.
Regarding `NCC(CCCCN1Cc2ccccc2C(CNCc2ccccc2C(F)(F)F)C1c1cc(C(F)(F)F)cc(C(F)(F)F)c1)NCCc1ccccc1` (stereo not drawn) [TRG 2414-42], the IC50 in assay [1] was 32.8 µM; in assay [2] it was 30.2 µM.
The matching figures for `NCC(CCCCN1Cc2ccccc2C(CNCc2ccccc2C(F)(F)F)C1c1cc(C(F)(F)F)cc(C(F)(F)F)c1)NCc1ccccc1` (stereo not drawn) [TRG 2414-43]: 56.9 µM and 42 µM.
In the case of `CC(C)Cc1ccc(C(C)CNC(CN)CCCCN2Cc3ccccc3C(CNCc3ccccc3C(F)(F)F)C2c2cc(C(F)(F)F)cc(C(F)(F)F)c2)cc1` (stereo not drawn) [TRG 2414-44], in assay [1], the “MC-1 IC50” value was “no fit”. Moreover, the “MC-4 IC50” value in assay [2] is recorded as “no fit”.
For the molecule `CCOc1ccccc1CNCC1c2ccccc2CN(CCCCC(N)CN)C1c1cc(C(F)(F)F)cc(C(F)(F)F)c1` (stereo not drawn) [TRG 2414-45], the IC50 turned out to be 6.34 µM in assay [1] and 0.92 µM in assay [2].
The matching figures for `CCOc1ccccc1CNCC1c2ccccc2CN(CCCCC(CN)NCCc2ccccc2)C1c1cc(C(F)(F)F)cc(C(F)(F)F)c1` (stereo not drawn) [TRG 2414-46]: 6.54 µM and 4.25 µM.
The matching figures for `CCOc1ccccc1CNCC1c2ccccc2CN(CCCCC(CN)NCc2ccccc2)C1c1cc(C(F)(F)F)cc(C(F)(F)F)c1` (stereo not drawn) [TRG 2414-47]: 7.74 µM and 7.51 µM.
The corresponding values for `CCOc1ccccc1CNCC1c2ccccc2CN(CCCCC(CN)NCC(C)c2ccc(CC(C)C)cc2)C1c1cc(C(F)(F)F)cc(C(F)(F)F)c1` (stereo not drawn) [TRG 2414-48] are 33.5 µM and 38.8 µM.
Consider `COc1ccccc1CCNCC1c2ccccc2CN(CCCC[C@H](N)CN)C1c1cc(C(F)(F)F)cc(C(F)(F)F)c1` (stereo partly drawn) [TRG 2414-49], for which the figures for the IC50 in assay [1] and in assay [2] were 3.77 µM and 0.32 µM, respectively.
Consider `COc1ccccc1CCNCC1c2ccccc2CN(CCCCC(CN)NCCc2ccccc2)C1c1cc(C(F)(F)F)cc(C(F)(F)F)c1` (stereo not drawn) [TRG 2414-50], for which the IC50 in assay [1] worked out at 8.09 µM; in assay [2] it was 4.94 µM.
The corresponding values for `COc1ccccc1CCNCC1c2ccccc2CN(CCCCC(CN)NCc2ccccc2)C1c1cc(C(F)(F)F)cc(C(F)(F)F)c1` (stereo not drawn) [TRG 2414-51] are 6.45 µM and 2.16 µM.
The matching figures for `NCC(N)CCCCN1Cc2ccccc2C(CNCCc2cccc(Cl)c2)C1c1cc(C(F)(F)F)cc(C(F)(F)F)c1` (stereo not drawn) [TRG 2414-53]: 9.78 µM and 0.64 µM.
The matching figures for `NCC(CCCCN1Cc2ccccc2C(CNCCc2cccc(Cl)c2)C1c1cc(C(F)(F)F)cc(C(F)(F)F)c1)NCCc1ccccc1` (stereo not drawn) [TRG 2414-54]: 9.81 µM and 3.06 µM.
Consider `NCC(CCCCN1Cc2ccccc2C(CNCCc2cccc(Cl)c2)C1c1cc(C(F)(F)F)cc(C(F)(F)F)c1)NCc1ccccc1` (stereo not drawn) [TRG 2414-55], for which the results for the IC50 in assay [1] and in assay [2] were 12.5 µM and 3.12 µM, respectively.
For the molecule `CC(C)Cc1ccc(C(C)CNC(CN)CCCCN2Cc3ccccc3C(CNCCc3cccc(Cl)c3)C2c2cc(C(F)(F)F)cc(C(F)(F)F)c2)cc1` (stereo not drawn) [TRG 2414-56], the “MC-1 IC50” value in assay [1] is recorded as “no fit”. The IC50 in assay [2] was 42.6 µM.
As to `COc1cccc(CNCC2c3ccccc3CN(CCCCC(N)CN)C2c2cc(C(F)(F)F)cc(C(F)(F)F)c2)c1` (stereo not drawn) [TRG 2414-57], the IC50 in assay [1] stood at 7.7 µM; in assay [2] it was 1.55 µM.
With `COc1cccc(CNCC2c3ccccc3CN(CCCCC(CN)NCCc3ccccc3)C2c2cc(C(F)(F)F)cc(C(F)(F)F)c2)c1` (stereo not drawn) [TRG 2414-58], the IC50 worked out at 6.72 µM in assay [1] and 3.45 µM in assay [2].
Take `COc1cccc(CNCC2c3ccccc3CN(CCCCC(CN)NCc3ccccc3)C2c2cc(C(F)(F)F)cc(C(F)(F)F)c2)c1` (stereo not drawn) [TRG 2414-59]: the figures for the concentration for half-maximal inhibition (IC50) in assay [1] and in assay [2] were 9.64 µM and 6.76 µM, respectively.
`COc1cccc(CNCC2c3ccccc3CN(CCCCC(CN)NCC(C)c3ccc(CC(C)C)cc3)C2c2cc(C(F)(F)F)cc(C(F)(F)F)c2)c1` (stereo not drawn) [TRG 2414-60]: the “MC-1 IC50” value in assay [1] is “no fit”. Moreover, the IC50 in assay [2] stood at 52.6 µM.
As for `COc1ccc(CNCC2c3ccccc3CN(CCCCC(N)CN)C2c2cc(C(F)(F)F)cc(C(F)(F)F)c2)cc1` (stereo not drawn) [TRG 2414-61], the IC50 was determined as 10.5 µM in assay [1] and 1.67 µM in assay [2].
The corresponding values for `COc1ccc(CNCC2c3ccccc3CN(CCCCC(CN)NCCc3ccccc3)C2c2cc(C(F)(F)F)cc(C(F)(F)F)c2)cc1` (stereo not drawn) [TRG 2414-62] are 15.5 µM and 6.87 µM.
The corresponding values for `COc1ccc(CNCC2c3ccccc3CN(CCCCC(CN)NCc3ccccc3)C2c2cc(C(F)(F)F)cc(C(F)(F)F)c2)cc1` (stereo not drawn) [TRG 2414-63] are 14.5 µM and 5.34 µM.
`COc1ccc(CNCC2c3ccccc3CN(CCCCC(CN)NCC(C)c3ccc(CC(C)C)cc3)C2c2cc(C(F)(F)F)cc(C(F)(F)F)c2)cc1` (stereo not drawn) [TRG 2414-64]: the IC50 in assay [1] was found to be 34.5 µM; in assay [2] it was 45.5 µM.
The matching figures for `COc1ccc(CCNCC2c3ccccc3CN(CCCCC(N)CN)C2c2cc(C(F)(F)F)cc(C(F)(F)F)c2)cc1` (stereo not drawn) [TRG 2414-65]: 3.3 µM and 0.26 µM.
The corresponding values for `COc1ccc(CCNCC2c3ccccc3CN(CCCCC(CN)NCCc3ccccc3)C2c2cc(C(F)(F)F)cc(C(F)(F)F)c2)cc1` (stereo not drawn) [TRG 2414-66] are 10.5 µM and 3.2 µM.
The corresponding values for `COc1ccc(CCNCC2c3ccccc3CN(CCCCC(CN)NCc3ccccc3)C2c2cc(C(F)(F)F)cc(C(F)(F)F)c2)cc1` (stereo not drawn) [TRG 2414-67] are 0.033 µM and 5.21 µM.
For `COc1ccc(CCNCC2c3ccccc3CN(CCCCC(CN)NCC(C)c3ccc(CC(C)C)cc3)C2c2cc(C(F)(F)F)cc(C(F)(F)F)c2)cc1` (stereo not drawn) [TRG 2414-68], in assay [1], the “MC-1 IC50” value is recorded as “no fit”. In addition, the IC50 in assay [2] is 17.7 µM.
On to `NCC(N)CCCCN1Cc2ccccc2C(CNCc2ccccc2)C1c1cc(C(F)(F)F)cc(C(F)(F)F)c1` (stereo not drawn) [TRG 2414-69], for which the concentration for half-maximal inhibition (IC50) in assay [1] is 9.45 µM; in assay [2] it was 0.64 µM.
In the case of `NCC(CCCCN1Cc2ccccc2C(CNCc2ccccc2)C1c1cc(C(F)(F)F)cc(C(F)(F)F)c1)NCCc1ccccc1` (stereo not drawn) [TRG 2414-70], the values for the IC50 in assay [1] and in assay [2] were 18.3 µM and 9.29 µM, respectively.
Consider `NCC(CCCCN1Cc2ccccc2C(CNCc2ccccc2)C1c1cc(C(F)(F)F)cc(C(F)(F)F)c1)NCc1ccccc1` (stereo not drawn) [TRG 2414-71], for which the figures for the IC50 in assay [1] and in assay [2] were 17 µM and 9.06 µM, respectively.
With `CC(C)Cc1ccc(C(C)CNC(CN)CCCCN2Cc3ccccc3C(CNCc3ccccc3)C2c2cc(C(F)(F)F)cc(C(F)(F)F)c2)cc1` (stereo not drawn) [TRG 2414-72], the “MC-1 IC50” value in assay [1] is “no fit”. Moreover, the IC50 in assay [2] was determined as 44.2 µM.
As to `NCC(N)CCCCN1Cc2ccccc2C(CNC2CCCCCC2)C1c1cc(C(F)(F)F)cc(C(F)(F)F)c1` (stereo not drawn) [TRG 2414-73], the IC50 turned out to be 5.77 µM in assay [1] and 1.01 µM in assay [2].
Consider `NCC(CCCCN1Cc2ccccc2C(CNC2CCCCCC2)C1c1cc(C(F)(F)F)cc(C(F)(F)F)c1)NCCc1ccccc1` (stereo not drawn) [TRG 2414-74], for which the IC50 in assay [1] amounted to 11.2 µM; in assay [2], 4.57 µM.
Turning to `NCC(CCCCN1Cc2ccccc2C(CNC2CCCCCC2)C1c1cc(C(F)(F)F)cc(C(F)(F)F)c1)NCc1ccccc1` (stereo not drawn) [TRG 2414-75], the IC50 in assay [1] was found to be 1.92 µM; in assay [2], 3.24 µM.
With `CC(C)Cc1ccc(C(C)CNC(CN)CCCCN2Cc3ccccc3C(CNC3CCCCCC3)C2c2cc(C(F)(F)F)cc(C(F)(F)F)c2)cc1` (stereo not drawn) [TRG 2414-76], the “MC-1 IC50” value in assay [1] was “no fit”. Also, the IC50 in assay [2] is 54.4 µM.

Source of the values: US6608082B1, “Treatment of erectile dysfunction using isoquinoline compound melanocortin receptor ligands” (Lion Bioscience AG, priority 1998, dated 2003).
